The test system of series [1] is Candida albicans. Description: Time-kill curves at 1 x MIC and 2 x MIC. The following applies: C. albicans, 28°C, sampled 0, 1, 2, 4, 6, 8, 12 and 24 h, n = 3. The format is cell-based. The method, then:
(§1) The minimum inhibitory concentration (MIC) of the Dex, AmB, Nap-FFDKY, Npx-FFDKY, Fmoc-FFDKY, Nap-AmB, Npx-AmB and Dex-AmB hydrogels was determined by a serial 2-fold dilution of test samples. Fourteen different concentrations of drugs and hydrogels were prepared in DMF solution. One millilitre of the fungal strain […] colony-forming unit (CFU)/tube was inoculated into each tube containing different concentrations (1 ml) of test samples and incubated at 28°C (200 rpm) for 24 h. The MIC was defined as the minimum concentration of the sample inhibiting the visible growth of the microorganism. The experiment was repeated at least three times. Based on the values of MIC, 0.1 ml of the fungal strain containing different concentrations of test samples which inhibited the visible growth of the microorganism was subcultivated on the Sabouraud's dextrose agar plates, and incubated at 28°C for 48 h. The minimum bactericidal concentration (MBC) determination was defined as the minimum concentration of the sample sterilizing the visible growth of the microorganism (lower than 5 CFU/plate). The experiment was repeated at least three times. Based on the values of MIC, the fungal strain containing 1 × MIC and 2 × MIC concentrations of test samples was incubated at 28°C. A test suspension containing 0.1 ml was taken out and used to evaluate fungus colonies at 0, 1, 2, 4, 6, 8, 12 and 24 h.

The test system of series [2] is Candida albicans. Briefly: microbe, parasite or virus in culture. Format: cell-based. As to conditions: Candida albicans; for MBC: read-out: MBC; for MIC: read-out: MIC. The method, then: as §1
The conditions of series [3]: low bioavailability; cited from earlier work. An excerpt: Invasive fungal infection has a significant influence on animal and plant life, which is a major cause of mortality that kills approximately 1.5 million people every year. Amphotericin B (AmB) is a broad-spectrum antifungal macrolide polyene antibiotic. Its antifungal effect is exerted by forming complexes with membrane sterols to allow the increase in the permeability of the fungal membrane. AmB is the most common antifungal agent used in clinical practice despite strong side-effects with low solubility and low bioavailability (less than 0.9%). Many researchers attempt ...

Converted amounts (≈) assume the structure as drawn. Where two headings read alike, the source gives them in different places.

Consider `C[C@@H]1[C@H](O)[C@@H](C)/C=C/C=C/C=C/C=C/C=C/C=C/C=C/[C@H](O[C@@H]2O[C@H](C)[C@@H](O)[C@H](N)[C@@H]2O)C[C@@H]2O[C@](O)(C[C@@H](O)C[C@@H](O)[C@H](O)CC[C@@H](O)C[C@@H](O)CC(=O)O[C@H]1C)C[C@H](O)[C@H]2C(=O)O` [AmB, Amphotericin B], for which the “time for which antifungal activity is exhibited in time-kill curves” value in the series with Candida albicans [1] amounted to 2 h. Besides, the MBC in the series with Candida albicans [2] (C. albicans, 0.1 ml subcultivated on Sabouraud's dextrose agar, 28°C, 48 h, lower than 5 CFU/plate, repeated at least three times) amounted to 130 µg/mL (≈ 141 µM); in the series with Candida albicans [2] (supplement Fig. S21) it was 130 µg/mL (≈ 141 µM). Further, the MIC with Candida albicans [2] (C. albicans, serial 2-fold dilution, 14 concentrations prepared in DMF, 1 ml fungal strain 10^18 CFU/tube, 28°C, 200 rpm, 24 h, visible growth, repeated at least three times) stood at 4.06 µg/mL (≈ 4.39 µM); with Candida albicans [2] (supplement Fig. S21), 4.06 µg/mL (≈ 4.39 µM). In series [3], the bioavailability result was “less than 0.9%”.

(Values after article PMC5882710, “Amphotericin B-conjugated polypeptide hydrogels as a novel innovative strategy for fungal infections” (Royal Society Open Science, 2018).)
